From patent publication US20120225909A1, “INDAZOLE ANALOG” (priority 2009, published 2012)

Columns and labels:
[1] = biological target: T1, human β3-adrenergic receptor (Homo sapiens, UniProt P13945); test: Test Case 1-B: human β3-adrenergic receptor agonist activity (cAMP-Screen, 96-well); type: cell-based; settings: for Emax: 0.5 h, read-out: β3 receptor I.A.; for EC50 / β3 receptor I.A.: Test Case 1-B; for EC50: CHO cells, cAMP; for β3 receptor I.A.: maximum response of isoproterenol = 100%
T1 construct: A full-length human β3 gene is obtained from a human genomic library (made by Clontech) using this as the probe; expressed in transfected cells; host or cells: CHO (Chinese hamster ovary) cells, pcDNA3
In short: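 CHO cells stably transfected with full-length human β3 gene, serum-starved 15 min, then exposed to serially diluted compound in Ham's F-12 with 100 mmol/L HEPES and 1 mmol/L IBMX (diluent concentrations) for 30 min. Cells lysed 30 min at 37 °C; cAMP quantified by cAMP-Screen immunoassay.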

[2] = biological target: T2, human β1-adrenergic receptor (Homo sapiens, UniProt P08588); test: Test Case 2-B: human β1-adrenergic receptor agonist activity; type: cell-based; settings: for Emax: read-out: β1 receptor I.A.; for β1 receptor I.A.: Test Case 2-B, maximum response of isoproterenol = 100%
T2 construct: expressed in transfected cells; host or cells: CHO (Chinese hamster ovary) cells, pcDNA3
Method: (§1) Measurement of Human β1-Adrenergic Receptor Agonist Activity
The human β1-adrenergic receptor agonist activity is measured by the same method as in Test Case 1-B using CHO (Chinese hamster ovary) cells transfected by a human β1 gene inserted in pcDNA3 (Invitrogen).

[3] = biological target: T3, human β2-adrenergic receptor (Homo sapiens, UniProt P07550); test: Test Case 3-B: human β2-adrenergic receptor agonist activity; type: cell-based; settings: for Emax: read-out: β2 receptor I.A.; for β2 receptor I.A.: Test Case 3-B, maximum response of isoproterenol = 100%
T3 construct: expressed in transfected cells; host or cells: CHO (Chinese hamster ovary) cells, pcDNA3
Method: (§2) Measurement of Human β2-Adrenergic Receptor Agonist Activity
The human β2-adrenergic receptor agonist activity is measured by the same method as in Test Case 1-B using CHO (Chinese hamster ovary) cells transfected by a human β2 gene inserted in pcDNA3 (Invitrogen).

[4] = test system: pentobarbital-anesthetized rats; test: Test Case 9: effects on the blood pressure and heart rate in pentobarbital-anesthetized rats; type: in vivo, rat
Method: Effects on the blood pressure and heart rate in pentobarbital-anesthetized rats
The blood pressure and heart rate of rats under pentobarbital anesthesia are measured, and the effects of rapid intravenous administration of the test compound on the blood pressure and heart rate can be studied. After anesthetizing male SD rats (Japan SLC) by intraperitoneal administration of 50 mg/kg of pentobarbital sodium (Tokyo Chemical Industry Co., Ltd.), 25 mg/kg of pentobarbital sodium is administered subcutaneously as maintenance anesthesia. The left femoral vein is exposed and stripped, and a SP10 polyethylene tube filled with saline (connected to a three-way stopcock via a ¼ venous needle) is inserted and left in place in the vein.
The inside of the left thigh is cut, and the femoral artery is exposed and stripped. A polyethylene tube filled with heparinized physiological saline solution (SP31, connected to a three-way stopcock via a Terumo injection needle 22G) is inserted and connected to a pressure transducer. The blood pressure is measured from the pressure transducer via a strain pressure amplifier (AP-641G, Nihon Kohden). The heart rate is measured with the pulse wave of the blood pressure as a trigger via a heart rate counter (AT-601G, Nihon Kohden). The blood pressure, mean blood pressure, and heart rate are output to a recorder and recorded. Furthermore, the mean blood pressure is recorded via the strain pressure amplifier (AP-641G) using the formula {[…]}.
Specifically, 3 mg/mL of test compound is administered rapidly at a volume of 1 mL/kg. The relative value (%) of the values at each point in time versus the mean blood pressure and heart rate before beginning administration are determined for each individual, and the mean±standard deviation of the relative value (%) at the time of the maximum change in each parameter is determined.

[5] = biological target: T4, human α1A-adrenergic receptor (Homo sapiens, UniProt P35348); test: Test Case 4-A: human α1A-adrenergic receptor agonist activity (HEK293, Ca flux, Fura-2); type: cell-based; set-up: expressed in transfected cells; host or cells: HEK293 cells, pcDNA3.1; settings: for Emax: HEK293, read-out: α1A receptor I.A.; for α1A receptor I.A.: Test Case 4-A, maximum response of norepinephrine = 100%, Table 4
T4 sequence (P35348 1-466): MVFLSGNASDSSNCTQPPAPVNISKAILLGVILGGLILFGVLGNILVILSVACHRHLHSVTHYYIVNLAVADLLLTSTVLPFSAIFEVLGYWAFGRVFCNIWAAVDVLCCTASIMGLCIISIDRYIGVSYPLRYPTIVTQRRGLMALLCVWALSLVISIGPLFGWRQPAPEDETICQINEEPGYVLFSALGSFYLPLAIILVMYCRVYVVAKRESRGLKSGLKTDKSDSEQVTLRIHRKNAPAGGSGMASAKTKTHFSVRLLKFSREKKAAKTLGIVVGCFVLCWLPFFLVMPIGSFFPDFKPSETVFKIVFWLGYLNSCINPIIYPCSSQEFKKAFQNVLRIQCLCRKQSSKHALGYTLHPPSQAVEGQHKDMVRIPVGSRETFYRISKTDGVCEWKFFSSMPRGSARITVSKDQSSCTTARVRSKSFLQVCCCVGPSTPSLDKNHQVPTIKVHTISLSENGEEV
In short: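 Fura-2AM-loaded HEK293 cells transfected with human α1A were preincubated for 180 s. Compound (sample plate 10^−5 to 10^−12 M) was added after ~30 s of 340/380 nm excitation ratio reading (500 nm emission, 2-s intervals), followed by 270 s more reading. Ca flux is the peak height: maximum ratio after addition minus the pre-addition ratio.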

Male C57BL/6 Cr mice = test: Test Case 10: mouse piloerection test; type: in vivo
Method: Male C57BL/6 Cr mice (Japan SLC) are used. The dissolved compound is administered rapidly via a caudal vein. The animal is placed on the observation stand 5, 15, 30, and 60 minutes after administration, and the state of piloerection is observed. The state of piloerection is evaluated by the following 7-level scoring system according to the examples by the method of Irwin (Psychopharmacologia 1968, 13; 222-257).
Scoring system: “Score 0”: No piloerection at all; “Score 1”: Slight piloerection (piloerection on part of the body such as the back or neck); “Score 2”: Moderate piloerection (piloerection over the entire body); “Score 3”: Marked piloerection (piloerection over the entire body, conspicuous to the extent that the skin can be seen).
“Score 0.5” is between “Score 0” and “Score 1” “Score 1.5” is between […]. “Score 2.5” is between “Score 2” and “Score 3.”

[6] = biological target: T2, human β1-adrenergic receptor; test: Test Case 2-C: human β1-adrenergic receptor agonist activity (Cerep cellular functional GPCR, beta 1); type: cell-based; settings: concentration 10 μM, isoproterenol = 100%
Text: as §1

[7] = biological target: T3, human β2-adrenergic receptor; test: Test Case 3-C: human β2-adrenergic receptor agonist activity (Cerep cellular functional GPCR, beta 2); type: cell-based; settings: concentration 10 μM, isoproterenol = 100%
Text: as §2

[8] = biological target: T4, human α1A-adrenergic receptor; test: Test Case 4-B: human α1A-adrenergic receptor agonist activity (Cerep cellular functional GPCR, alpha 1A); type: cell-based; set-up: expressed in transfected cells; settings: concentration 10 μM
Text: Measurement of Human α1A-Adrenergic Receptor Agonist Activity
The human α1A-adrenergic receptor agonist activity] can be measured by […] Functional GPCR·Gs, alpha 1A (Ref. 722-36a) listed on p. 52 of the Cerep 2008 CATALOG IN VITRO PHARMACOLOGY & ADME-TOX.

[9] = anesthetized male SD rats, 3 mg/kg intravenous over 30 seconds, maximum change, mean±standard deviation, 3 mg/kg
[10] = anesthetized male SD rats, 3 mg/kg intravenous over 30 seconds, maximum change, mean±standard deviation
[11] = 10 mg/kg i.v., n=4, observation time 5 min, Score 0
[12] = 10 mg/kg i.v., n=4, observation time 15 min, Score 0
[13] = 10 mg/kg i.v., n=4, observation time 30 min, Score 0
[14] = 10 mg/kg i.v., n=4, observation time 60 min, Score 0

T2 sequence (P08588 whole entry): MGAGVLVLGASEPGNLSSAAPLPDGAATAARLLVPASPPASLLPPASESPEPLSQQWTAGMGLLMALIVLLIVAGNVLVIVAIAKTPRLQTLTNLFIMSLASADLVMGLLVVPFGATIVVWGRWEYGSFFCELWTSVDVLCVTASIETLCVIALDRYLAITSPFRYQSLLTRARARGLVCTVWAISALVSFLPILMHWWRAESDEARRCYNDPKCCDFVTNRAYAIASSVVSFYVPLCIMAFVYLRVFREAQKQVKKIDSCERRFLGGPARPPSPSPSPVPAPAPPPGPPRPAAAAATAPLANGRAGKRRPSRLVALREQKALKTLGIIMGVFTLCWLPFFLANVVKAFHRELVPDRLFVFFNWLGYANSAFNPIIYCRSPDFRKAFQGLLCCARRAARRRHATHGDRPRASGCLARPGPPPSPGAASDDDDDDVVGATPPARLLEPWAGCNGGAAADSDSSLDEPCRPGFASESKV
T3 sequence (P07550 whole entry): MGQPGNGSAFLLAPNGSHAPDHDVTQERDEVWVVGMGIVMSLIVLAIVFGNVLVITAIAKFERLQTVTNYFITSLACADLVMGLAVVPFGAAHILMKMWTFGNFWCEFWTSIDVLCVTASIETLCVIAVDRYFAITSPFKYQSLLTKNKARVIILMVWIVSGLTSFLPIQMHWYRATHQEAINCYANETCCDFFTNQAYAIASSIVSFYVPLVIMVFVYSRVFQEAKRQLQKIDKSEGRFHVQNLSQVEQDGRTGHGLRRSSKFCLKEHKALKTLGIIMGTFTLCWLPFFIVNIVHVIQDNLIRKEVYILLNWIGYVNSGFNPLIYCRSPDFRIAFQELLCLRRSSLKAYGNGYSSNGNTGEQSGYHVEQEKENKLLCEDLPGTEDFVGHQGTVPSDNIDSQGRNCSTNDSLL
T1 sequence (P13945 whole entry): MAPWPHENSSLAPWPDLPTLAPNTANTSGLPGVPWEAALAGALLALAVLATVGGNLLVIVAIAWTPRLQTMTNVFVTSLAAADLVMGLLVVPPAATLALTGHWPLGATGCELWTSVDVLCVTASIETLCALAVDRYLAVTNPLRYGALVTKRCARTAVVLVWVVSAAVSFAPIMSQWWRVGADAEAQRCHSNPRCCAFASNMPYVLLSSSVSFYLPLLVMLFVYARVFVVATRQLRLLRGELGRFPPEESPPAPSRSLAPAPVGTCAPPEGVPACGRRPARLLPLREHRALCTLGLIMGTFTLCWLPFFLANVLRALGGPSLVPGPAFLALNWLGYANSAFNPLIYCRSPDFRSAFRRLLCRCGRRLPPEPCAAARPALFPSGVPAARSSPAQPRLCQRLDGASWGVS

Structure (SMILES) | Emax [1] | EC50 [1] | Emax [2] | Emax [3] | Emax [5] | increase in MBP (%) [4, 10] | number of experimental animals matching Score 0 (no piloerection) (Male C57BL/6 Cr mice; [11]) | number of experimental animals matching Score 0 (no piloerection) (Male C57BL/6 Cr mice; [12]) | number of experimental animals matching Score 0 (no piloerection) (Male C57BL/6 Cr mice; [13]) | number of experimental animals matching Score 0 (no piloerection) (Male C57BL/6 Cr mice; [14]) | β3 receptor I.A. [1] | α1A receptor I.A. [5] | also measured
COc1n[nH]c2cc(OCCNC[C@H](O)c3cccc(NS(=O)(=O)c4ccsc4)c3)ccc12 [ex11, (R)-N-(3-(1-hydroxy-2-(2-(3-methoxyindazol-6-yloxy)ethylamino)ethyl)phenyl) thiophene-3-sulfonamide] | 115% | 3.2 nM | 3% | 3% | 0% |  |  |  |  |  |  |  | increase in MBP (%) [4, 9]: 6.1 ± 3.7%
Cc1n[nH]c2cc(OCCNC[C@H](O)c3cccc(NS(=O)(=O)c4cn[nH]c4)c3)ccc12 [ex82, (R)-N-(3-(1-hydroxy-2-(2-(3-methylindazol-6-yloxy)ethylamino)ethyl)phenyl)py-razole-4-sulfonamide] | 71% | 16 nM | 7% | 2% | 13% | 5.7 ± 0.8% |  |  |  |  |  |  | 
Cc1n[nH]c2cc(OCCNC[C@H](O)c3cccc(NS(=O)(=O)c4cc(N)ccc4F)c3)ccc12 [ex61] | 64% | 0.2 nM | 17% | -3% | 0% | 4.7 ± 1.2% | 4 | 4 | 4 | 4 |  |  | 
COc1n[nH]c2cc(OCCNC[C@H](O)c3cccc(NS(=O)(=O)c4ccsc4)c3)ccc12 [ex46, (R)-N-(3-(1-hydroxy-2-(2-(3-methoxyindazol-6-yloxy)-ethylamino)ethyl)phenyl)thio-phene-3-sulfonamide] |  | 2.4 nM |  |  |  |  |  |  |  |  | 78% | 0% | β1 receptor I.A. [2]: 5%; β2 receptor I.A. [3]: −2%; increase in MBP (%) ([4]; rat, in vivo, iv, 3 mg/kg): 5.6 ± 1.1%; number of experimental animals matching Score 0 (no piloerection) (Male C57BL/6 Cr mice; in vivo, iv, 10 mg/kg): 4
O=S(=O)(Nc1cccc([C@@H](O)CNCCOc2ccc3c(C4CC4)n[nH]c3c2)c1)C1CC1 [ex212] | 95% | 29 nM | 6% | 15% | 0% | 2.1 ± 1.7% | 4 | 4 | 4 | 4 |  |  | 
COc1n[nH]c2cc(OCCNC[C@H](O)c3cccc(NS(=O)(=O)c4cccc(N)c4)c3)ccc12 [ex41, (R)-3-amino-N-(3-(1-hydroxy-2-(2-(3-methoxyindazol-6-yloxy)ethylamino)ethyl)phenyl) benzenesulfonamide] |  | 0.21 nM |  |  |  | 5.7 ± 0.8% |  |  |  |  | 76% | 0% | β1 receptor I.A. [2]: 12%; β2 receptor I.A. [3]: 5%
COc1n[nH]c2cc(OCCNC[C@H](O)c3cccc(NS(=O)(=O)c4ccccc4F)c3)ccc12 [ex5, (R)-2-fluoro-N-(3-(1-hydroxy-2-(2-(3-methoxyindazol-6-yloxy)ethylamino)ethyl)phenyl)benzenesulfonamide] | 90% | 90 nM | 5% | 0% | 0% | 5.1 ± 2.4% | 2 | 2 | 2 | 2 |  |  | number of experimental animals matching Score 0.5 (Male C57BL/6 Cr mice; 10 mg/kg i.v., n=4, observation time 5 min): 2; number of experimental animals matching Score 0.5 (Male C57BL/6 Cr mice; 10 mg/kg i.v., n=4, observation time 15 min): 2; number of experimental animals matching Score 0.5 (Male C57BL/6 Cr mice; 10 mg/kg i.v., n=4, observation time 30 min): 2; number of experimental animals matching Score 0.5 (Male C57BL/6 Cr mice; 10 mg/kg i.v., n=4, observation time 60 min): 2
COc1n[nH]c2cc(OCCNC[C@H](O)c3cccc(NS(=O)(=O)c4cccs4)c3)ccc12 [ex2, (R)—N-(3-(1-hydroxy-2-(2-(3-methoxyindazol-6-yloxy)ethylamino)ethyl)phenyl)thiophene-2-sulfonamide] | 109% | 3.5 nM | 6% | 3% | 0% |  |  |  |  |  |  |  | increase in MBP (%) [4, 9]: 4.9 ± 0.9%
Cc1n[nH]c2cc(OCCNC[C@H](O)c3cccc(NS(=O)(=O)c4c(F)cccc4F)c3)ccc12 [ex71, (R)-2,6-difluoro-N-(3-(1-hydroxy-2-(2-(3-methylindazol-6-yloxy)ethylamino)ethyl)phenyl) benzenesulfonamide] |  | 152 nM |  |  |  |  |  |  |  |  | 96% | 2% | β1 receptor % of Control Agonist Response [6]: 32%; β2 receptor % of Control Agonist Response [7]: 1.5%; α1 receptor % of Control Agonist Response, Control; Epinephrine ([8]; epinephrine = 100%): 4.3%; α1 receptor % of Control Agonist Response, Control; Norepinephrine ([8]; norepinephrine = 100%): 3.7%
